Test results reported in EP0687673A1, “Oxazole derivatives as antitumoral agents” (PHARMA MAR, S.A., priority 1994, dated 1995).
In brackets after ≈: the same amount, converted by molar mass.

Tests used:
Format in all cases: cell-based
[1] = tested on: A-549 (monolayer culture of a human lung carcinoma); assay: Antitumor screening, growth inhibition of A-549 cells (Crystal Violet staining); conditions: A549, 72 h, three days of incubation at 37°C, approximate IC₅₀ vs control wells, duplicate
Experimental: (§1) Cells were maintained in logarithmic phase of growth in Eagle's Minimum Essential Medium, with Earle's Balanced Salts, with 2.0 mM L-Glutamine, with non-essential Amino Acids, without Sodium Bicarbonate (EMEM/NEAA); supplemented with 10% Fetal Calf Serum (FCS), 10⁻² M Sodium Bicarbonate and 0,1 g/1 Penicillin-G + Streptomycin Sulfate.
(§2) A simple screening procedure was carried out to determine and compare the antitumor activity of these compounds, using an adapted form of the method described by Bergeron et al., Biochem. Biophys. Res. Comm. (1984) 121 848 [Reference 6]. The antitumor cell employed was P-388 (suspension culture of a lymphoid neoplasm from DBA/2 mouse), A-549 (monolayer culture of a human lung carcinoma), HT-29 (monolayer culture of a human colon carcinoma) and MEL-28 (monolayer culture of a human melanoma).
(§3) A-549, HT-29 and MEL-28 were seeded into 16 mm wells at 2 x 10⁴ cells per well in […] of MEM 10FCS containing the indicated concentration of drug. A separate set of cultures without drug was seeded as control growth to ensure that cells remained in exponential phase of growth. All determinations were carried out in duplicate. After three days of incubation at 37°C, 10% CO₂ in a 98% humid atmosphere, the wells were stained with 0.1% Crystal Violet. An approximate IC₅₀ was determined by comparing the growth in wells with drug to the growth in control wells.

[2] = tested on: MEL-28 (monolayer culture of a human melanoma); assay: Antitumor screening, growth inhibition of MEL-28 cells (Crystal Violet staining); conditions: SK-MEL-28, 72 h, three days of incubation at 37°C, approximate IC₅₀ vs control wells, duplicate
Experimental: as §1, §2, §3

[3] = tested on: HT-29 (monolayer culture of a human colon carcinoma); assay: Antitumor screening, growth inhibition of HT-29 cells (Crystal Violet staining); conditions: 72 h, three days of incubation at 37°C, approximate IC₅₀ vs control wells, duplicate
Experimental: as §1, §2, §3

[4] = tested on: P-388 (suspension culture of a lymphoid neoplasm from DBA/2 mouse); assay: Antitumor screening, growth inhibition of P-388 cells; conditions: P388, 72 h, three days of incubation at 37°C, approximate IC₅₀ vs control wells, duplicate
Experimental: as §1, §2
P-388 cell were seeded into 16 mm wells at 1 x 10⁴ cells per well in 1 ml aliquots of MEM 5FCS containing the indicated concentration of drug. A separate set of cultures without drug was seeded as control growth to ensure that cells remained in exponential phase of growth. All determinations were carried out in duplicate. After three days of incubation at 37°C, 10% CO₂ in a 98% humid atmosphere, an approximate IC₅₀ was determined by comparing the growth in wells with drug to the growth in control wells.

| IC50 [1] [µg/mL] | IC50 [2] [µg/mL] | IC50 [3] [µg/mL] | IC50 [4] [µg/mL] | Structure (SMILES) |
| --- | --- | --- | --- | --- |
| 0.01 | 0.01 | 0.02 | 0.2 | CCCCCCCCCCCCCCCCCCCCC(=O)OC(CC(OC(C)=O)C(OC(C)=O)C(C)OC(C)=O)c1coc(Cc2cnco2)n1 (stereo not drawn) [Digonazole triacetate (8), Digonazole triacetate] |
| 5 (≈ 16.8 µM) | 5 (≈ 16.8 µM) | 5 (≈ 16.8 µM) | > 20 | CC(O)C(O)C(O)CC(O)c1coc(Cc2cnco2)n1 (stereo not drawn) |
| 0.2 (≈ 0.33 µM) |  | 0.2 (≈ 0.33 µM) | 2.5 (≈ 4.12 µM) | CCCCCCCCCCCCCCCCCCCCC(=O)OC(CC(O)C(O)C(C)O)c1coc(Cc2cnco2)n1 (stereo not drawn) [Digonazole (6), Digonazole] |

| Structure (SMILES) | IC50 [1] [µg/mL] | IC50 [2] [µg/mL] | IC50 [3] [µg/mL] | IC50 [4] [µg/mL] |
| --- | --- | --- | --- | --- |
| CC(=O)OC(CC(OC(C)=O)C(OC(C)=O)C(C)OC(C)=O)c1coc(Cc2cnco2)n1 (stereo not drawn) [Tetraacetoxyhexyl dioxazole (10), Tetraacetoxyhexyl dioxazole] | 1 (≈ 2.14 µM) | 10 (≈ 21.4 µM) | 0.5 (≈ 1.07 µM) | 10 (≈ 21.4 µM) |
